Results: patent US20130281544A1, “HEPATOPROTECTANT ACTIVITY OF GARCINOL” (priority 2010, published 2013)
In brackets after ≈: the same amount, converted by molar mass.

What was measured:
[1] = tested on: carbon tetrachloride induced liver damage in rats; test: Bilirubin and serum enzymes ALT, AST, ALP in carbon tetrachloride induced liver damage; assay type: in vivo, Male Wistar Rats; conditions: CCl4; for ALP percent change / ALT percent change / AST percent change / Bilirubin percent change / ALP / ALT / AST / Bilirubin: serum; for ALP / ALT / AST / Bilirubin: Mean ± SE
Procedure: Doses of Garcinol (GC) used for the study: 1.25, 2.5, 5, 10 mg/kg p.o.
Standard drug: Silymarin (50 mg/kg) p.o.
Liver injury was induced by administration of carbon tetrachloride (CCl4) mixed with liquid paraffin (5 fold dilution). Animals were given single dose of CCl4 at 1 ml/kg, p.o. followed by the administration of garcinol (Table 2). [(i) Bramanti G, Murmann W, Pierini P and Comporti M (1978). Effect of cicloxilic acid on CCl4-induced liver injury. Drug Research 28: 1112-1217. (ii) B Singh, A K Saxena, B K Chandan, K K Anand (1998). Hepatoprotective activity of Verbenalin on experimental liver damage in rodents. Fitoterapia LXIX 2: 135-140. (iii) B. K. Chandan, A. K. Sharma, K. K. Anand Boerhaavia difiusa: A study of its hepatoprotective activity. Journal of Ethnopharmacology, Volume 31, Issue 3, March 1991, Pages 299-307].
Blood was collected from the retro-orbital plexus of experimental animals and no anti-coagulant was added. Blood was made to stand at room temperature for 1 hour. It was then centrifuged and clear serum was separated. The serum was then stored for analysis. Reference: (Magari et al., 2004).
(ASPARTATE AMINOTRANSFERASE and ALANINE AMINOTRANSFERASE), Reference: Ritman S, Frankel S, (1957). A colorimeteric method for the determination of serum glutamic oxaloacetic and glutamic pyruvic transaminases. American Journal of Clinical Pathology; 28: 56-63.
0.2 ml of serum, collected from test and control samples, was mixed with 1.0 ml of buffer solution and incubated for 60 min at 37° C. in a water bath. After the addition of 1.0 ml of chromogen solution, the samples were kept at room temperature for 20 minutes for the reaction to proceed and 10 ml NaOH was added. The optical density was red at 546 nm after 5 min. To the blank, serum was added after the addition of chromogen solution.
(ALKALINE PHOSPHATASE), Reference: Klaus Walter and Schutt C. (1974). Acid and alkaline phosphatase in serum. In: Methods of Enzymatic Analysis. Eds. Hans Ulrich Bergmeyer, Verlag ChemieWeinheim, Academic press, Inc. New York, 2nd Edition, Vol. 2, pp. 855-64.
Alkaline phosphatase activity measurement is based on the ability of the enzyme to hydrolyze p-nitrophenol phosphate under alkaline conditions. The cleaved product p-nitrophenol is yellow in alkaline solution and is measured at 400-420 nm (Klaus and Schutt, 1974). 2.0 ml of buffered substrate was taken in the tubes ‘Test’ ‘Control’ and ‘Blank’ followed by addition of serum and distilled water (0.1 ml) in ‘Test’ and ‘Blank’ respectively and incubated in a water bath for 30 minutes at 25° C. After incubation sodium hydroxide was added (0.25 N, 2 ml) to all the tubes, which was followed by serum (0.1 ml) to the tubes marked ‘Control’. The yellow colour formed was measured spectrophotometrically against blank at 410 nm.
[BILIRUBIN (BRBN)], Reference: Malloy H T and Evelyn K A (1937). The determination of bilirubin with photoelectric colorimeter. Journal of Biological Chemistry 119: 481-490.
Serum bilirubin was estimated by the method of Malloy and Evelyn (1937). In the two sets of test tubes marked ‘Test’ and ‘Control’, serum (0.2 ml) and distilled water (1.8 ml) were added. To the tubes marked ‘Test’ and ‘Standard’ diazo reagent (0.5 ml) was added. To the test tubes marked ‘Control’ and ‘Blank’ diazo blank (0.5 ml) was added. Finally methanol (2.5 ml) was added into each test tube. The tubes were mixed and allowed to stand for 30 minutes in dark. The tubes were read after 10 minutes at 540 nm.

mice = conditions: mouse, in vivo, po
Source text: The parameters studied and observations recorded are included in Table 1. (OECD Guidelines for Testing of Chemicals. Guideline 423, Acute Oral Toxicity—Acute Toxic Class Method, Adopted, (1996). Organization for Economic Cooperation and Development).

[2] = tested on: Hep G2 liver cancer cell line; test: in vitro; assay type: cell-based
in vitro = assay type: cell-based; conditions: human

C=C(C)[C@@H](CC=C(C)C)C[C@@]12C[C@@H](CC=C(C)C)C(C)(C)[C@@](CC=C(C)C)(C(=O)C(C(=O)c3ccc(O)c(O)c3)=C1O)C2=O [Garcinol]
Average Protection ([1]; 1.25 mg/kg p.o.): 12.63%
Average Protection ([1]; 2.50 mg/kg p.o.): 24.99%
Average Protection ([1]; 5.00 mg/kg p.o.): 38.07%
Average Protection ([1]; 10.00 mg/kg p.o.): 36.87%
ALP percent change ([1]; 1.25 mg/kg p.o.): (10.79) %
ALT percent change ([1]; 1.25 mg/kg p.o.): (12.84) %
AST percent change ([1]; 1.25 mg/kg p.o.): (14.95) %
Bilirubin percent change ([1]; 1.25 mg/kg p.o.): (11.96) %
ALP ([1]; 1.25 mg/kg p.o.): 78.49 ± 6.58 μmol/min/lt
ALT ([1]; 1.25 mg/kg p.o.): 1272.50 ± 109.19 μmol/min/lt
AST ([1]; 1.25 mg/kg p.o.): 746.81 ± 36.93 μmol/min/lt
Bilirubin ([1]; 1.25 mg/kg p.o.): 1.03 ± 0.04 mg %
ALP percent change ([1]; 2.50 mg/kg p.o.): (20.08) %
ALT percent change ([1]; 2.50 mg/kg p.o.): (29.65) %
AST percent change ([1]; 2.50 mg/kg p.o.): (26.32) %
Bilirubin percent change ([1]; 2.50 mg/kg p.o.): (23.93) %
ALP ([1]; 2.50 mg/kg p.o.): 70.32 ± 3.89 μmol/min/lt
ALT ([1]; 2.50 mg/kg p.o.): 1027.07 ± 68.26 μmol/min/lt
AST ([1]; 2.50 mg/kg p.o.): 646.90 ± 50.53 μmol/min/lt
Bilirubin ([1]; 2.50 mg/kg p.o.): 0.89 ± 0.05 mg %
ALP percent change ([1]; 5.00 mg/kg p.o.): (32.73) %
ALT percent change ([1]; 5.00 mg/kg p.o.): (43.24) %
AST percent change ([1]; 5.00 mg/kg p.o.): (42.98) %
Bilirubin percent change ([1]; 5.00 mg/kg p.o.): (33.33) %
ALP ([1]; 5.00 mg/kg p.o.): 59.19 ± 4.45 μmol/min/lt
ALT ([1]; 5.00 mg/kg p.o.): 828.59 ± 46.56 μmol/min/lt
AST ([1]; 5.00 mg/kg p.o.): 500.66 ± 49.22 μmol/min/lt
Bilirubin ([1]; 5.00 mg/kg p.o.): 0.78 ± 0.04 mg %
ALP percent change ([1]; 10.00 mg/kg p.o.): (32.15) %
ALT percent change ([1]; 10.00 mg/kg p.o.): (38.94) %
AST percent change ([1]; 10.00 mg/kg p.o.): (40.50) %
Bilirubin percent change ([1]; 10.00 mg/kg p.o.): (35.89) %
ALP ([1]; 10.00 mg/kg p.o.): 59.70 ± 3.69 μmol/min/lt
ALT ([1]; 10.00 mg/kg p.o.): 891.36 ± 45.72 μmol/min/lt
AST ([1]; 10.00 mg/kg p.o.): 522.43 ± 57.50 μmol/min/lt
Bilirubin ([1]; 10.00 mg/kg p.o.): 0.75 ± 0.04 mg %
Aggressiveness (mice): Aggressiveness: Nil
Atexia (mice): Atexia: Nil
Blanching (mice): Blanching: Nil
Clonic convulsions (mice): Clonic convulsions: Nil
Corneal (mice): Corneal: No Effect
Cyanosis (mice): Cyanosis: Nil
Diarrhea (mice): Diarrhea: Nil
Excitation (mice): Excitation: Nil
Fearful (mice): Fearful: Nil
Fecal Output (mice): Fecal Output: Normal
General Locomotor Activity (mice): General Locomotor Activity: Normal
General Movement (mice): General Movement: Normal
Hyperemia (mice): Hyperemia: Nil
Motor Activity (mice): Motor Activity: Normal
Muscular Weakness (mice): Muscular Weakness: Nil
Passive (mice): Passive: Nil
Pilo erection (mice): Pilo erection: Nil
Pinnal (mice): Pinnal: No Effect
Respiration Depth (mice): Respiration Depth: Normal
Respiration Rate (mice): Respiration Rate: Normal
Respiration rate (mice): Respiration rate: Normal
Salivation (mice): Salivation: Normal
Tremors (mice): Tremors: Nil
Urine Output (mice): Urine Output: Normal
effective concentration for mammalian hepatocyte protection [2]: 0.78 to 6.25 µg/mL
IC50 ([2]; Homo sapiens, HepG2, HEP G2 cells, MTT, read-out: Hepatoprotective activity in HEP G2 cells IC50): 13.3 µg/mL (≈ 22.1 µM)
cytotoxicity at 0.78 μg/ml (in vitro): -3.81%
cytotoxicity at 1.56 μg/ml (in vitro): -12.1%
cytotoxicity at 3.13 μg/ml (in vitro): -14.7%
cytotoxicity at 6.25 μg/ml (in vitro): -1.94%
cytotoxicity at 12.5 μg/ml (in vitro): 35.8%
cytotoxicity at 25 μg/ml (in vitro): 60.9%
cytotoxicity at 50 μg/ml (in vitro): 83.2%
cytotoxicity at 100 μg/ml (in vitro): 83.4%
cytotoxicity at 200 μg/ml (in vitro): 79.5%
